pEC50, pIC50: −log10 of the molar value. Values joined by “and” are separate entries in the source; they are usually repeats but may differ in a detail not shown here. Equal values may be shown once. Read-outs that look alike come from different tables or passages of the source.
Assays:
[1] = biological target: T1, endogenous GABAB receptor in CGNs (Mus musculus, UniProt Q9WV18); assay: cell-based; design: species or system primary cerebellar granule neurons (CGNs); BRET G protein sensor (Galpha-Nluc / Venus-Ggamma2), agonist-induced change of BRET
T1 construct: gene Gabbr1; native receptor, primary cerebellar granule neurons
Source text: (§1) Dotted line is the correlation of pEC50 determined with HEK293 cells. […] Data are mean ± SEM from at least three biologically independent experiments each performed in triplicate and analysed using one-way ANOVA with a Dunnett’s post-hoc multiple comparison test to determine significance. […] Sequence of the linker (L) before and after Nluc was indicated. […] The raw data and p-values are available in source data provided as a Source Data file.

[2] = biological target: T2, GABAB receptor (GB1 subunit) (Rattus norvegicus, UniProt Q9Z0U4); assay: cell-based; design: species or system HEK293; BRET G protein sensor (Galpha-Nluc / Venus-Ggamma2), agonist-induced change of BRET
T2 construct: gene Gabbr1; HA-tagged rat GB1 with Flag-tagged rat GB2 expressed in HEK293 cells; with GABAB2 (GB2)
Source text: as §1

[3] = biological target: T3, endogenous cannabinoid CB1 receptor in CGNs (Mus musculus, UniProt P47746); assay: cell-based; design: species or system mouse primary cerebellar granule neurons (CGNs)
T3 construct: gene Cnr1; native receptor, primary cerebellar granule neurons

cannabinoid CB1 receptor [4] = biological target: T4, cannabinoid CB1 receptor (Mus musculus, UniProt P47746); assay: cell-based; design: species or system HEK293
T4 construct: gene Cnr1; mouse CB1 cDNA expressed in HEK293 cells
Source text: The raw data and p-values are available in source data provided as a Source Data file.

[5] = biological target: T3, endogenous cannabinoid CB1 receptor in CGNs; design: species or system mouse primary cerebellar granule neurons (CGNs); details: agonist
cannabinoid CB1 receptor [6] = biological target: T4, cannabinoid CB1 receptor; assay: cell-based; design: BRET between Galpha-Nluc and Venus-Ggamma2, agonist-induced Gi1 or GoA response of transfected mouse CB1; details: read-out: Emax ± SEM (n) / Bay 59-3074
Experimental: Fig. 6 Difference of Gi1 and GoA responses by cannabinoid receptor CB1 agonists. a Detection of CB1 receptor in cell membranes of CGNs, mock-transfected HEK293 cells and HEK293 cells transfected with mouse CB1 cDNA (80 ng/well in 96-well plate), by western blotting. Values are mean ± SEM normalized as fold of CB1 expression in CGNs from three independent experiments. b Percentage of change in BRET ratio between Gα^Nluc and ^VenusGγ2 induced by [compound left out] in HEK293 cells (CB1 cDNA; 80 ng/well per 96-well plate) or CGNs for the indicated Gαi1, Gαi2, Gαi3, GαoA, GαoB or Gαz sensors (amounts of cDNA as in Fig. 2a). […] Data are analysed using unpaired t-test (two-tailed) to determine significance. ****p < 0.0001, *p < 0.05 and not significant (ns). c, d Change of BRET signal between Gα^Nluc and ^VenusGγ2 induced by the indicated CB1 receptor agonists in HEK293 cells and CGNs measured by Gi1 and GoA sensors. […] Inset, correlation of the agonist potencies (pEC50) between HEK293 cells and CGNs determined by the G protein sensors. Dotted lines are the correlation of pEC50 determined with HEK293 cells. […] Values are mean ± SEM normalized as fold of […] expression in CGNs from four independent experiments. c Expression of the Nluc-tagged Gα transfected in CGNs or in HEK293 cells in (a), measured by the luminescent signal at 480 nm. […]

[7] = biological target: T1, endogenous GABAB receptor in CGNs; assay: cell-based; design: species or system primary cerebellar granule neurons (CGNs); details: with 20 uM baclofen
Source text: We have further validated these G protein sensors by measuring the potency of different orthosteric GABAB receptor ligands (Fig. 3a) in both CGNs and HEK293 cells. […] Similar results were obtained in the hippocampal neurons and cortical neurons (Supplementary Fig. 4b–d and Supplementary Table 1). […] Dotted line is the correlation of pEC50 determined with HEK293 cells. […] Data are mean ± SEM from at least three biologically independent experiments each performed in triplicate and analysed using one-way ANOVA with a Dunnett’s post-hoc multiple comparison test to determine significance. […] The raw data and p-values are available in source data provided as a Source Data file. Fig. 1 Design and validation of the Gi/o protein sensors in neurons. a Scheme of the BRET-based sensors to detect the activity of the endogenous GPCR in neurons. b Scheme of the Gαi/o^Nluc and ^VenusGγ2 constructs co-transfected in the neurons. Sequence of the linker (L) before and after Nluc was indicated. […] The data are representative of BRET ratios from five independent experiments. e Representative fluorescent images of Venus and DAPI in CGNs transfected with GαoA^Nluc and ^VenusGγ2 or in HEK293 cells transfected with GαoA^Nluc, Gβ1 and ^VenusGγ2 from three independent experiments. […] The data are representative of the mean ± SEM of BRET ratios from three independent experiments. […]

[8] = biological target: T5, endogenous GABAB receptor in cortical neurons (Mus musculus, UniProt Q9WV18); assay: cell-based; design: species or system primary cortical neurons; details: read-out: pEC50 cortical neurons (converted)
T5 construct: gene Gabbr1; native receptor, primary cortical neurons
Source text: (§2) Sequence of the linker (L) before and after Nluc was indicated. […] The raw data and p-values are available in source data provided as a Source Data file.

[9] = biological target: T6, endogenous GABAB receptor in hippocampal neurons (Mus musculus, UniProt Q9WV18); assay: cell-based; design: species or system primary hippocampal neurons; BRET G protein sensor (Galpha-Nluc / Venus-Ggamma2), agonist-induced change of BRET; details: read-out: pEC50 hippocampal neurons (converted)
T6 construct: gene Gabbr1; native receptor, primary hippocampal neurons
Source text: as §2

T3 sequence (P47746 whole entry): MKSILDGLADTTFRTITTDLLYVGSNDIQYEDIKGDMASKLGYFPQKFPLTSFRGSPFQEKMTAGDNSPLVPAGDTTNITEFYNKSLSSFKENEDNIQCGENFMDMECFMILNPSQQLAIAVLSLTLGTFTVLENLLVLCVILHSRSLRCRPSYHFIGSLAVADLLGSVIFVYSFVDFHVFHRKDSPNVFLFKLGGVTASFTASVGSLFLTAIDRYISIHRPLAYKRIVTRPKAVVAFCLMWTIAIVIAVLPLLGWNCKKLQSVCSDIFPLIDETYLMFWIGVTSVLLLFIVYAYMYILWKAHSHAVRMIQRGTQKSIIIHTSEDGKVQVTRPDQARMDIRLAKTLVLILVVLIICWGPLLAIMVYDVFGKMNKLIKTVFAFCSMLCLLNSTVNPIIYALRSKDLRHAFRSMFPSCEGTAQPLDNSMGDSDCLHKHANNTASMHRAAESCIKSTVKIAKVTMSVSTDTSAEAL
T4 sequence (P47746 whole entry): as above
T6 sequence (Q9WV18 whole entry): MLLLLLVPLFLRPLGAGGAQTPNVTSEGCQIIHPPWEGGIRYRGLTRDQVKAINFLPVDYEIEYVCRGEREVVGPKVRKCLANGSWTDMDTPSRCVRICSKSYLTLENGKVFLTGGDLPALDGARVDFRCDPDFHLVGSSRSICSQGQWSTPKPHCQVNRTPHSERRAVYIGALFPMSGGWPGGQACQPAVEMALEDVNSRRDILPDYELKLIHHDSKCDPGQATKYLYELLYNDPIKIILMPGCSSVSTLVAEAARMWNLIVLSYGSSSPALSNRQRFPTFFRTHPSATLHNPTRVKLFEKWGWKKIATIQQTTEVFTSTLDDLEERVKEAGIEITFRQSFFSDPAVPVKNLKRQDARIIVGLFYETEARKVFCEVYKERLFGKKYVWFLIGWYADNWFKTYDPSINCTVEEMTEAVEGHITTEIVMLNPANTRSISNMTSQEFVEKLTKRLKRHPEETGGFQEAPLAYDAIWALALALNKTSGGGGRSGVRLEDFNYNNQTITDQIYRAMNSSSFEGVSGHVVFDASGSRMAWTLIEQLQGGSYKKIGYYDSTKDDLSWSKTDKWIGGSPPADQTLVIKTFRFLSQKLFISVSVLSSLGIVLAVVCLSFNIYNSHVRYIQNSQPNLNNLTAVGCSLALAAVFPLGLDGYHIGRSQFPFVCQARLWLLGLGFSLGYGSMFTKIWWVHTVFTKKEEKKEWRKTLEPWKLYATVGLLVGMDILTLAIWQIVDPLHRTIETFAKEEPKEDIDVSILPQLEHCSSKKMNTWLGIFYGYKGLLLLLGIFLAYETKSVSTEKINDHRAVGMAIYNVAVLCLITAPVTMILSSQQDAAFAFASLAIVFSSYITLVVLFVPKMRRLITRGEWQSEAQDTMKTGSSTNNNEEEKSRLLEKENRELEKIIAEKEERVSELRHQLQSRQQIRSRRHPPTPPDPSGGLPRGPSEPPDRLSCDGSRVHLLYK
T6 sequence (Q80T41 whole entry partner): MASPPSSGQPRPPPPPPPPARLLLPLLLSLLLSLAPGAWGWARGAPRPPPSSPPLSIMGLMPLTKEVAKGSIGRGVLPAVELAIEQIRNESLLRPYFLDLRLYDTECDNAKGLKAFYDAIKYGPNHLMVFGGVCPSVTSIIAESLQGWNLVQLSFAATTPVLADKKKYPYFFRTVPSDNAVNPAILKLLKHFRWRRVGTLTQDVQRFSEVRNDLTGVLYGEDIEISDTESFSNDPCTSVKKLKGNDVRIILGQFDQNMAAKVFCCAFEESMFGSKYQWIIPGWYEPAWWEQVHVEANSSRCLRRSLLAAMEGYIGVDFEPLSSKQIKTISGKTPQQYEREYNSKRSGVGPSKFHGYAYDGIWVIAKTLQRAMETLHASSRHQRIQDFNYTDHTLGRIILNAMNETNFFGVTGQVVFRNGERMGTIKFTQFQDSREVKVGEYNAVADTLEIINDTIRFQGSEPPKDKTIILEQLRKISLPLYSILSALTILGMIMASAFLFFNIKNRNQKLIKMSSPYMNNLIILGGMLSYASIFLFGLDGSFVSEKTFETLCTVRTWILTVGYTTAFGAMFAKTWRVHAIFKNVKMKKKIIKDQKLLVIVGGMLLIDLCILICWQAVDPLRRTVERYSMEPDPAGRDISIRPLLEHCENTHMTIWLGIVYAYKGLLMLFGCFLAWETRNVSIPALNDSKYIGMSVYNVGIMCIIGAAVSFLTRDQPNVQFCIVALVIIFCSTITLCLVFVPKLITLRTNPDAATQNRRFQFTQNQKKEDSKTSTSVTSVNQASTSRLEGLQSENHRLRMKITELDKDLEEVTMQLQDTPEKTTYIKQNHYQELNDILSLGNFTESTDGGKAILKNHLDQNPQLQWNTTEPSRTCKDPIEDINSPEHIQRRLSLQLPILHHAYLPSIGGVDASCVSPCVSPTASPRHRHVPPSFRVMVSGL
T5 sequence (Q9WV18 whole entry): as the sequence (Q9WV18 whole entry) above
T5 sequence (Q80T41 whole entry partner): as the sequence (Q80T41 whole entry partner) above
T1 sequence (Q9WV18 whole entry): as the sequence (Q9WV18 whole entry) above
T1 sequence (Q80T41 whole entry partner): as the sequence (Q80T41 whole entry partner) above
T2 sequence (Q9Z0U4 20-960): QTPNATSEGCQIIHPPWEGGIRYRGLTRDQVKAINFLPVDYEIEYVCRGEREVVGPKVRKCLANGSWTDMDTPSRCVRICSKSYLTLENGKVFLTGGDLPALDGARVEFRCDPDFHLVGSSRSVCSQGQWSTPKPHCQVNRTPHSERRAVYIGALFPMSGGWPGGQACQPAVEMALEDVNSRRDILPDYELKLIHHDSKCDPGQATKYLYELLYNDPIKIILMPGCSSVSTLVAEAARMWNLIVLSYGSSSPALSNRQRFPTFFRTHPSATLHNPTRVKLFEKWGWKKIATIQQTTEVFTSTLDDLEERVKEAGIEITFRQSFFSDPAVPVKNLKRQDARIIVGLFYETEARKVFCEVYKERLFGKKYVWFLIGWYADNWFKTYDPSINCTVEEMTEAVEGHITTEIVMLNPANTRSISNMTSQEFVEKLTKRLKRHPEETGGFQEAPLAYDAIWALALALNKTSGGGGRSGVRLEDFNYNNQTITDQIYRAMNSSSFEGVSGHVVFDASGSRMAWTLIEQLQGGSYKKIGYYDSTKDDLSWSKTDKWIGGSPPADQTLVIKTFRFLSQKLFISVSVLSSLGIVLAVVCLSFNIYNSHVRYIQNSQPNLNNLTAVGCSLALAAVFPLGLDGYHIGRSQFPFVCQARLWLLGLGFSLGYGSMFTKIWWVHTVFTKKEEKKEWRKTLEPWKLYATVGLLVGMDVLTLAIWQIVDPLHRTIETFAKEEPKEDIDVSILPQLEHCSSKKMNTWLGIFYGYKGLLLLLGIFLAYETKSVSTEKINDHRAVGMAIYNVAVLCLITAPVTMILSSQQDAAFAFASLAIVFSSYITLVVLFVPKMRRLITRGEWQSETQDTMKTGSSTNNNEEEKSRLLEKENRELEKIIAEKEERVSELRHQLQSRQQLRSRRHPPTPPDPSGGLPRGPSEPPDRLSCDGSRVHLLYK
T2 sequence (O88871 41-940 partner): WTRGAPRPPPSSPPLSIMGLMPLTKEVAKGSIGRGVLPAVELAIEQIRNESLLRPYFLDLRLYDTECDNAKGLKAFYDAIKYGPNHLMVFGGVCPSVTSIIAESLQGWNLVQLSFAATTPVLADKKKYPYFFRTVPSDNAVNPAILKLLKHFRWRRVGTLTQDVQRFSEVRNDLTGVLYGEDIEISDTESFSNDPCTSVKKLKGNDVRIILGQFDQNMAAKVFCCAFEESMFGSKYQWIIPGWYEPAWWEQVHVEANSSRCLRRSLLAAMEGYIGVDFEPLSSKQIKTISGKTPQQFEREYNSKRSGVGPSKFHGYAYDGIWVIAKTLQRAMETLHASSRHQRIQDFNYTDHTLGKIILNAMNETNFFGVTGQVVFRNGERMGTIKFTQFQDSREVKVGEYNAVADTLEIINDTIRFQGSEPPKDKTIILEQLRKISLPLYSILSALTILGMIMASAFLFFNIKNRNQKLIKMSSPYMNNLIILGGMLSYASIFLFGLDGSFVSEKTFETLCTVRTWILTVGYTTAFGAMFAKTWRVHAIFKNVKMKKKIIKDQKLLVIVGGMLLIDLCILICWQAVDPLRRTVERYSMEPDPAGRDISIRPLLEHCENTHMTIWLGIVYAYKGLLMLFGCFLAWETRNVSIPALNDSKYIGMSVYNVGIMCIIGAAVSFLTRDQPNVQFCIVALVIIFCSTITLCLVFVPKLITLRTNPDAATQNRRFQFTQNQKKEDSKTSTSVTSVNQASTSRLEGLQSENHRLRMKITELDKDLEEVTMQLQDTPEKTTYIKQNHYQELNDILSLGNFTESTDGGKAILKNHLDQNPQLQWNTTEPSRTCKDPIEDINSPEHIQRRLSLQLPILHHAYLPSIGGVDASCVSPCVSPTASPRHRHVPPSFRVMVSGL

| Compound | pEC50 ([1]; Gi1 sensor) | pEC50 ([1]; GoA sensor) | EC50 ([8]; Gi1 sensor) | EC50 ([8]; GoA sensor) | EC50 ([9]; Gi1 sensor) | EC50 ([9]; GoA sensor) | further results |
| --- | --- | --- | --- | --- | --- | --- | --- |
| NCCC[PH](=O)O [APPA] | 6.13 | 6.16 | – | – | – | – | pEC50 ([2]; pEC50 HEK293, Gi1 sensor): 7.67; pEC50 ([2]; pEC50 HEK293, GoA sensor): 7.77 |
| N#Cc1c(Oc2cccc(OS(=O)(=O)CCCC(F)(F)F)c2)cccc1C(F)(F)F [Bay 59-3074] | – | – | – | – | – | – | pEC50 ([3]; pEC50 ± SEM (n) / Bay 59-3074): 6.47 and 6.20; pEC50 (cannabinoid CB1 receptor [4]; pEC50 ± SEM (n) / Bay 59-3074): 6.15 and 5.93; Emax ± SEM (n) / Bay 59-3074 [5]: 70.7 ± 1.1 (4) and 42.1 ± 3.9 (3); Emax (cannabinoid CB1 receptor [6]; HEK293, B=Gi1, % of maximum response of reference agonist): 50.3%; Emax (cannabinoid CB1 receptor [6]; HEK293, B=GoA, % of maximum response of reference agonist): 56.3% |
| C[C@@H](NC[C@H](O)CP(=O)(O)CCCCCNC(=O)CCc1ccc(O)c(I)c1)c1cccc(C(=O)O)c1 [CGP64213] | – | – | – | – | – | – | pIC50 ([7]; Gi1 sensor): 7.55; pIC50 ([7]; GoA sensor): 7.59 |
| CCCCCCC(C)(C)c1ccc([C@@H]2C[C@H](O)CC[C@H]2CCCO)c(O)c1 [CP 55940] | – | – | – | – | – | – | pEC50 ([3]; pEC50 ± SEM (n) / CP 55940, B=Gi1, G protein BRET sensor (Gi1 or GoA), CGNs): 8.18; pEC50 ([3]; pEC50 ± SEM (n) / CP 55940, B=GoA, G protein BRET sensor (Gi1 or GoA), CGNs): 7.26; pEC50 (cannabinoid CB1 receptor [4]; pEC50 ± SEM (n) / CP 55940, B=Gi1, G protein BRET sensor (Gi1 or GoA), transfected HEK293): 6.90; pEC50 (cannabinoid CB1 receptor [4]; pEC50 ± SEM (n) / CP 55940, B=GoA, G protein BRET sensor (Gi1 or GoA), transfected HEK293): 6.78 |
| CP(=O)(O)CCCN [SKF 97541] | 5.63 | 5.69 | 302 nM | 603 nM | 229 nM | 692 nM | – |
| NCC(CC(=O)O)c1ccc(Cl)cc1 (stereo not drawn) [baclofen] | 5.32 | 5.57 | 1120 nM | 1780 nM | 1020 nM | 2630 nM | – |

Source: paper PMC10914727 (Nature Communications, 2024)
